From ChEMBL document CHEMBL1201862, “PubChem BioAssay data set” (2004)
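Grown in 96-well plates, cells were treated for 48 hours with each compound at five concentrations. Insufficient inhibition: endpoint recorded as highest concentration tested. Abbreviation: GI50, concentration required for 50% inhibition of growth.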 Active and inactive are the calls of the source. Rule as the data show it: active = GI50 up to about 1.1 µM and inactive = higher.

Tests used:
Test in all cases: NCI tumour cell line growth inhibition, 48 h
ACHN = system: ACHN
CAKI-1 = system: CAKI-1
HCC 2998 = system: HCC 2998
HOP-18 = system: HOP-18
HOP-92 = system: HOP-92
KM12 = system: KM12
MOLT-4 = system: MOLT-4
OVCAR-4 = system: OVCAR-4
RPMI-8226 = system: RPMI-8226
SK-MEL-2 = system: SK-MEL-2
SK-MEL-5 = system: SK-MEL-5
SNB-19 = system: SNB-19
SNB-75 = system: SNB-75
SW-620 = system: SW-620
U-251 = system: U-251
UACC-257 = system: UACC-257
UO-31 = system: UO-31
BT-549 = system: BT-549
DU-145 = system: DU-145

In the case of `CC(=O)Oc1ccccc1C(=O)C1c2cccc(O)c2C(=O)c2c(O)cccc21`, the GI50 (ACHN) is reported as 0.771 µM (active), the GI50 (CAKI-1) is reported as 1.95 µM (inactive) and the GI50 (HCC 2998) is reported as 0.581 µM (active). For the same compound, the GI50 (HOP-18) was 2.16 µM (inactive), the GI50 (HOP-92) was 1.18 µM (inactive) and the GI50 (KM12) was 0.421 µM (active). For the same compound, the GI50 (MOLT-4) was 1.46 µM (inactive), the GI50 (OVCAR-4) was 0.995 µM (active) and the GI50 (RPMI-8226) was 0.374 µM (active). The GI50 (SK-MEL-2) was 1.19 µM (inactive), the GI50 (SK-MEL-5) was 1.05 µM (active) and the GI50 (SNB-19) was 0.416 µM (active). The GI50 (SNB-75) was 0.695 µM (active), the GI50 (SW-620) was 0.445 µM (active) and the GI50 (U-251) was 0.494 µM (active). The GI50 (UACC-257) was 1.62 µM (inactive) and the GI50 (UO-31) was 0.741 µM (active).

`CCCC(O)c1cn(-c2cccc(S(=O)(=O)O)c2)nn1` (configuration not stated) was tested, and the GI50 (ACHN) was > 100 µM (inactive), the GI50 (CAKI-1) was > 100 µM (inactive) and the GI50 (HCC 2998) was > 100 µM (inactive). The GI50 (HOP-18) was > 100 µM (inactive), the GI50 (HOP-92) was > 100 µM (inactive) and the GI50 (KM12) was > 100 µM (inactive). For the same compound, the GI50 (MOLT-4) was > 100 µM (inactive), the GI50 (OVCAR-4) was > 100 µM (inactive) and the GI50 (RPMI-8226) was > 100 µM (inactive). For the same compound, the GI50 (SK-MEL-2) was > 100 µM (inactive), the GI50 (SK-MEL-5) was > 100 µM (inactive) and the GI50 (SNB-19) was > 100 µM (inactive). For the same compound, the GI50 (SNB-75) was > 100 µM (inactive), the GI50 (SW-620) was > 100 µM (inactive) and the GI50 (U-251) was > 100 µM (inactive). For the same compound, the GI50 (UACC-257) was > 100 µM (inactive) and the GI50 (UO-31) was > 100 µM (inactive).

`CC1(C)OCC(CO)(Nc2nc(N3CC3)nc(N3CC3)n2)CO1` was tested, and the GI50 (ACHN) was 1.42 µM (inactive), the GI50 (BT-549) was 26.1 µM (inactive) and the GI50 (CAKI-1) was 1.52 µM (inactive). The GI50 (DU-145) was 1.3 µM (inactive), the GI50 (HCC 2998) was 16.9 µM (inactive) and the GI50 (HOP-18) was 27 µM (inactive). The GI50 (HOP-92) was 15.3 µM (inactive), the GI50 (KM12) was 16.3 µM (inactive) and the GI50 (MOLT-4) was 0.597 µM (active). The GI50 (OVCAR-4) was 18.8 µM (inactive), the GI50 (RPMI-8226) was 16.1 µM (inactive) and the GI50 (SK-MEL-2) was 19 µM (inactive). For the same compound, the GI50 (SK-MEL-5) was 8.18 µM (inactive), the GI50 (SNB-19) was 11.2 µM (inactive) and the GI50 (SNB-75) was 6.58 µM (inactive). For the same compound, the GI50 (SW-620) was 14.5 µM (inactive), the GI50 (U-251) was 4.04 µM (inactive) and the GI50 (UACC-257) was 14.7 µM (inactive). For the same compound, the GI50 (UO-31) was 8.95 µM (inactive).

With `COC1(C)C(=O)N2C1N(C(=O)OC(C)(C)C)CC2(C)C` (configuration not stated) the GI50 (ACHN) was > 100 µM (inactive), the GI50 (CAKI-1) was > 100 µM (inactive) and the GI50 (HCC 2998) was > 100 µM (inactive). For the same compound, the GI50 (HOP-18) was > 100 µM (inactive), the GI50 (HOP-92) was > 100 µM (inactive) and the GI50 (KM12) was > 100 µM (inactive). For the same compound, the GI50 (MOLT-4) was > 100 µM (inactive), the GI50 (OVCAR-4) was > 100 µM (inactive) and the GI50 (RPMI-8226) was 44.8 µM (inactive). The GI50 (SK-MEL-2) was > 100 µM (inactive), the GI50 (SK-MEL-5) was > 100 µM (inactive) and the GI50 (SNB-19) was > 100 µM (inactive). The GI50 (SNB-75) was > 100 µM (inactive), the GI50 (SW-620) was 17.5 µM (inactive) and the GI50 (U-251) was > 100 µM (inactive). The GI50 (UACC-257) was > 100 µM (inactive) and the GI50 (UO-31) was > 100 µM (inactive).

For `COC(=O)C1=C(C)C(=O)[C@H]2C(C(=O)OC)CCCC[C@@H]12` (some centres not stated), the GI50 (ACHN) was > 100 µM (inactive), the GI50 (CAKI-1) was > 100 µM (inactive) and the GI50 (HCC 2998) was > 100 µM (inactive). The GI50 (HOP-18) was > 100 µM (inactive), the GI50 (HOP-92) was 32.3 µM (inactive) and the GI50 (KM12) was > 100 µM (inactive). For the same compound, the GI50 (MOLT-4) was 54.6 µM (inactive), the GI50 (OVCAR-4) was > 100 µM (inactive) and the GI50 (RPMI-8226) was 66.2 µM (inactive). The GI50 (SK-MEL-2) was > 100 µM (inactive), the GI50 (SK-MEL-5) was 72.9 µM (inactive) and the GI50 (SNB-19) was > 100 µM (inactive). For the same compound, the GI50 (SNB-75) was > 100 µM (inactive), the GI50 (SW-620) was > 100 µM (inactive) and the GI50 (U-251) was > 100 µM (inactive). The GI50 (UACC-257) was 45.6 µM (inactive) and the GI50 (UO-31) was > 100 µM (inactive).
